Assay results from patent publication US20230085307A1, “PYRIDAZINONE COMPOUND AND HERBICIDE” (NISSAN CHEMICAL CORPORATION, priority 2019, published 2023).

How the values were obtained:
southern crabgrass [1] = assay: Test Example 4: herbicidal effect by soil treatment (Table 19, symbol F); assay type: in vivo, southern crabgrass (Digitaria ciliaris); conditions: amount of applied herbicide 320 g/ha
Outline: (§1)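 Pre-emergence style soil spray: seeds under ~1.5 cm sterilized diluvial soil received a uniform coat of emulsion diluted to the predetermined herbicide amount. Greenhouse 25–30° C; readout at week three on previously defined criteria.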

blackgrass [2] = assay: Test Example 5: herbicidal effect by foliage application, plastic box (Table 20, symbol J); assay type: in vivo, blackgrass (Alopecurus myosuroides); conditions: foliage application, 320 g/ha, three weeks after application
Outline: (§2)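 Plants were sown into sterilized diluvial soil under about 1.5 cm cover and kept in a greenhouse at 25° C. to 30° C. Fourteen days on, foliage received an even spray of the diluted emulsion. Herbicidal or crop effect was judged three weeks afterwards.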

lambsquarters [3] = assay: Test Example 4: herbicidal effect by soil treatment (Table 19, symbol O); assay type: in vivo, lambsquarters (Chenopodium album); conditions: amount of applied herbicide 320 g/ha
Outline: as §1

Chinese sprangletop = assay: Test Example 3: herbicidal effect by foliage application, Wagner pot (Table 18, symbol D); assay type: in vivo, chinese sprangletop (Leptochloa chinensis); conditions: 320 g/ha
Outline: (§3)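 Plants were sown in alluvial soil held under 0.1–0.5 cm standing water and grown 14 days in a greenhouse at 25–30 °C. An emulsifiable formulation, water-diluted to the set dose, was then sprayed onto the foliage, and effects were scored three weeks later using previously defined criteria.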

blackgrass [4] = assay: Test Example 4: herbicidal effect by soil treatment (Table 19, symbol J); assay type: in vivo, blackgrass (Alopecurus myosuroides); conditions: amount of applied herbicide 320 g/ha
Outline: as §1

wild oat [5] = assay: Test Example 5: herbicidal effect by foliage application, plastic box (Table 20, symbol I); assay type: in vivo, wild oat (Avena fatua); conditions: foliage application, 320 g/ha, three weeks after application
Outline: as §2

Italian ryegrass [6] = assay: Test Example 4: herbicidal effect by soil treatment (Table 19, symbol K); assay type: in vivo, Italian ryegrass (Lolium multiflorum); conditions: amount of applied herbicide 320 g/ha
Outline: as §1

lambsquarters [7] = assay: Test Example 5: herbicidal effect by foliage application, plastic box (Table 20, symbol O); assay type: in vivo, lambsquarters (Chenopodium album); conditions: foliage application, 320 g/ha, three weeks after application
Outline: as §2

windgrass [8] = assay: Test Example 5: herbicidal effect by foliage application, plastic box (Table 20, symbol L); assay type: in vivo, windgrass (Apera spica-venti); conditions: foliage application, 320 g/ha, three weeks after application
Outline: as §2

windgrass [9] = assay: Test Example 4: herbicidal effect by soil treatment (Table 19, symbol L); assay type: in vivo, windgrass (Apera spica-venti); conditions: amount of applied herbicide 320 g/ha
Outline: as §1

chickweed [10] = assay: Test Example 5: herbicidal effect by foliage application, plastic box (Table 20, symbol P); assay type: in vivo, common chickweed (Stellaria media); conditions: foliage application, 320 g/ha, three weeks after application
Outline: as §2

green foxtail [11] = assay: Test Example 4: herbicidal effect by soil treatment (Table 19, symbol G); assay type: in vivo, green foxtail (Setaria viridis); conditions: amount of applied herbicide 320 g/ha
Outline: as §1

rice flat sedge = assay: Test Example 3: herbicidal effect by foliage application, Wagner pot (Table 18, symbol E); assay type: in vivo, rice flat sedge (Cyperus iria); conditions: 320 g/ha
Outline: as §3

green foxtail [12] = assay: Test Example 5: herbicidal effect by foliage application, plastic box (Table 20, symbol G); assay type: in vivo, green foxtail (Setaria viridis); conditions: foliage application, 320 g/ha, three weeks after application
Outline: as §2

redroot pigweed [13] = assay: Test Example 5: herbicidal effect by foliage application, plastic box (Table 20, symbol N); assay type: in vivo, redroot pigweed (Amaranthus retroflexus); conditions: foliage application, 320 g/ha, three weeks after application
Outline: as §2

wild oat [14] = assay: Test Example 4: herbicidal effect by soil treatment (Table 19, symbol I); assay type: in vivo, wild oat (Avena fatua); conditions: amount of applied herbicide 320 g/ha
Outline: as §1

barnyard grass [15] = assay: Test Example 4: herbicidal effect by soil treatment (Table 19, symbol H); assay type: in vivo, barnyard grass (Echinochloa crus-galli); conditions: amount of applied herbicide 320 g/ha
Outline: as §1

persian speedwell [16] = assay: Test Example 5: herbicidal effect by foliage application, plastic box (Table 20, symbol R); assay type: in vivo, Persian speedwell (Veronica persica); conditions: foliage application, 320 g/ha, three weeks after application
Outline: as §2

barnyard grass [17] = assay: Test Example 3: herbicidal effect by foliage application, Wagner pot (Table 18, symbol H); assay type: in vivo, barnyard grass (Echinochloa crus-galli); conditions: 320 g/ha
Outline: as §3

southern crabgrass [18] = assay: Test Example 5: herbicidal effect by foliage application, plastic box (Table 20, symbol F); assay type: in vivo, southern crabgrass (Digitaria ciliaris); conditions: foliage application, 320 g/ha, three weeks after application
Outline: as §2

Italian ryegrass [19] = assay: Test Example 5: herbicidal effect by foliage application, plastic box (Table 20, symbol K); assay type: in vivo, Italian ryegrass (Lolium multiflorum); conditions: foliage application, 320 g/ha, three weeks after application
Outline: as §2

chickweed [20] = assay: Test Example 4: herbicidal effect by soil treatment (Table 19, symbol P); assay type: in vivo, common chickweed (Stellaria media); conditions: amount of applied herbicide 320 g/ha
Outline: as §1

persian speedwell [21] = assay: Test Example 4: herbicidal effect by soil treatment (Table 19, symbol R); assay type: in vivo, Persian speedwell (Veronica persica); conditions: amount of applied herbicide 320 g/ha
Outline: as §1

barnyard grass [22] = assay: Test Example 5: herbicidal effect by foliage application, plastic box (Table 20, symbol H); assay type: in vivo, barnyard grass (Echinochloa crus-galli); conditions: foliage application, 320 g/ha, three weeks after application
Outline: as §2

velvetleaf [23] = assay: Test Example 4: herbicidal effect by soil treatment (Table 19, symbol M); assay type: in vivo, velvetleaf (Abutilon theophrasti); conditions: amount of applied herbicide 320 g/ha
Outline: as §1

velvetleaf [24] = assay: Test Example 5: herbicidal effect by foliage application, plastic box (Table 20, symbol M); assay type: in vivo, velvetleaf (Abutilon theophrasti); conditions: foliage application, 320 g/ha, three weeks after application
Outline: as §2

redroot pigweed [25] = assay: Test Example 4: herbicidal effect by soil treatment (Table 19, symbol N); assay type: in vivo, redroot pigweed (Amaranthus retroflexus); conditions: amount of applied herbicide 320 g/ha
Outline: as §1

Row | SMILES | F: southern crabgrass, herbicidal effect grade (southern crabgrass [1]) | J: blackgrass, herbicidal effect grade (blackgrass [2]) | O: lambsquarters, herbicidal effect grade (lambsquarters [3]) | herbicidal effect on Chinese sprangletop (D) (Chinese sprangletop) | J: blackgrass, herbicidal effect grade (blackgrass [4]) | I: wild oat, herbicidal effect grade (wild oat [5]) | K: Italian ryegrass, herbicidal effect grade (Italian ryegrass [6]) | O: lambsquarters, herbicidal effect grade (lambsquarters [7]) | L: windgrass, herbicidal effect grade (windgrass [8]) | L: windgrass, herbicidal effect grade (windgrass [9]) | P: chickweed, herbicidal effect grade (chickweed [10]) | G: green foxtail, herbicidal effect grade (green foxtail [11]) | herbicidal effect on rice flat sedge (E) (rice flat sedge) | G: green foxtail, herbicidal effect grade (green foxtail [12]) | N: redroot pigweed, herbicidal effect grade (redroot pigweed [13]) | I: wild oat, herbicidal effect grade (wild oat [14]) | H: barnyard grass, herbicidal effect grade (barnyard grass [15]) | R: persian speedwell, herbicidal effect grade (persian speedwell [16]) | herbicidal effect on barnyard grass (H) (barnyard grass [17]) | F: southern crabgrass, herbicidal effect grade (southern crabgrass [18]) | also measured
1 | CCCC(=O)Oc1c(C)nn(C)c(=O)c1-c1c(-c2ccccc2OC)sc2cc(Cl)ccc12 [3-036] | 1 (Herbicidal rate of 5% or more and less than 20%) | 0 (Herbicidal rate of 5% or less (almost no effect)) | 3 (Herbicidal rate of 40% or more and less than 70%) | 0 (Herbicidal rate of 5% or less (almost no effect)) | 0 (Herbicidal rate of 5% or less (almost no effect)) | 1 (Herbicidal rate of 5% or more and less than 20%) | 0 (Herbicidal rate of 5% or less (almost no effect)) | 3 (Herbicidal rate of 40% or more and less than 70%) | 0 (Herbicidal rate of 5% or less (almost no effect)) | 3 (Herbicidal rate of 40% or more and less than 70%) | 5 (Herbicidal rate of 90% or more (almost completely withered)) | 2 (Herbicidal rate of 20% or more and less than 40%) | 4 (Herbicidal rate of 70% or more and less than 90%) | 3 (Herbicidal rate of 40% or more and less than 70%) | 5 (Herbicidal rate of 90% or more (almost completely withered)) | 0 (Herbicidal rate of 5% or less (almost no effect)) | 3 (Herbicidal rate of 40% or more and less than 70%) | 5 (Herbicidal rate of 90% or more (almost completely withered)) | 5 (Herbicidal rate of 90% or more (almost completely withered)) | 1 (Herbicidal rate of 5% or more and less than 20%) | K: Italian ryegrass, herbicidal effect grade (Italian ryegrass [19]): 0 (Herbicidal rate of 5% or less (almost no effect)); P: chickweed, herbicidal effect grade (chickweed [20]): 3 (Herbicidal rate of 40% or more and less than 70%); R: persian speedwell, herbicidal effect grade (persian speedwell [21]): 3 (Herbicidal rate of 40% or more and less than 70%); H: barnyard grass, herbicidal effect grade (barnyard grass [22]): 5 (Herbicidal rate of 90% or more (almost completely withered)); M: velvetleaf, herbicidal effect grade (velvetleaf [23]): 2 (Herbicidal rate of 20% or more and less than 40%); M: velvetleaf, herbicidal effect grade (velvetleaf [24]): 4 (Herbicidal rate of 70% or more and less than 90%); N: redroot pigweed, herbicidal effect grade (redroot pigweed [25]): 5 (Herbicidal rate of 90% or more (almost completely withered))
2 | COc1ccc(-c2sc3cc(Cl)ccc3c2-c2c(O)c(C)nn(C)c2=O)cc1 [3-037] | 0 (Herbicidal rate of 5% or less (almost no effect)) | 0 (Herbicidal rate of 5% or less (almost no effect)) | 3 (Herbicidal rate of 40% or more and less than 70%) | 3 (Herbicidal rate of 40% or more and less than 70%) | 0 (Herbicidal rate of 5% or less (almost no effect)) | 0 (Herbicidal rate of 5% or less (almost no effect)) | 0 (Herbicidal rate of 5% or less (almost no effect)) | 4 (Herbicidal rate of 70% or more and less than 90%) | 0 (Herbicidal rate of 5% or less (almost no effect)) | 0 (Herbicidal rate of 5% or less (almost no effect)) | 5 (Herbicidal rate of 90% or more (almost completely withered)) | 0 (Herbicidal rate of 5% or less (almost no effect)) | 4 (Herbicidal rate of 70% or more and less than 90%) | 0 (Herbicidal rate of 5% or less (almost no effect)) | 5 (Herbicidal rate of 90% or more (almost completely withered)) | 0 (Herbicidal rate of 5% or less (almost no effect)) | 0 (Herbicidal rate of 5% or less (almost no effect)) | 5 (Herbicidal rate of 90% or more (almost completely withered)) | 4 (Herbicidal rate of 70% or more and less than 90%) | 0 (Herbicidal rate of 5% or less (almost no effect)) | K: Italian ryegrass, herbicidal effect grade (Italian ryegrass [19]): 0 (Herbicidal rate of 5% or less (almost no effect)); P: chickweed, herbicidal effect grade (chickweed [20]): 3 (Herbicidal rate of 40% or more and less than 70%); R: persian speedwell, herbicidal effect grade (persian speedwell [21]): 3 (Herbicidal rate of 40% or more and less than 70%); H: barnyard grass, herbicidal effect grade (barnyard grass [22]): 0 (Herbicidal rate of 5% or less (almost no effect)); M: velvetleaf, herbicidal effect grade (velvetleaf [23]): 0 (Herbicidal rate of 5% or less (almost no effect)); M: velvetleaf, herbicidal effect grade (velvetleaf [24]): 5 (Herbicidal rate of 90% or more (almost completely withered)); N: redroot pigweed, herbicidal effect grade (redroot pigweed [25]): 0 (Herbicidal rate of 5% or less (almost no effect))
